The test system of test [1] is Aspergillus flavus. As to the kind of experiment: Antifungal activity against Aspergillus flavus after 72 to 96 hr by two-fold serial dilution method. In kind it is functional.
Test [2] concerns Aspergillus niger. The experiment in a line: Antifungal activity against Aspergillus niger after 72 to 96 hr by two-fold serial dilution method. It is filed as functional.
Test [3] has as its system Rhizopus. As to the kind of experiment: Antifungal activity against Rhizopus sp. after 72 to 96 hr by two-fold serial dilution method. It is filed as functional.
The subject of the next test is Candida albicans. As to the kind of experiment: Antifungal activity against Candida albicans after 72 to 96 hr by two-fold serial dilution method. In kind it is functional.
The test system of test [4] is Cryptococcus neoformans. The experiment in a line: Antifungal activity against Cryptococcus neoformans after 72 to 96 hr by two-fold serial dilution method. In kind it is functional.
In another test the test system is Salmonella typhi. As to the kind of experiment: Antibacterial activity against Salmonella enterica subsp. enterica serovar Typhi after 24 hr by twofold serial dilution method. It is filed as functional.
The next test has as its system Pseudomonas aeruginosa. As to the kind of experiment: Antibacterial activity against Pseudomonas aeruginosa after 24 hr by twofold serial dilution method. It is filed as functional.
The test system of test [5] is Escherichia coli. As to the kind of experiment: Antibacterial activity against Escherichia coli after 24 hr by two-fold serial dilution method. It is filed as functional.
Test [6] deals with Bacillus subtilis. As to the kind of experiment: Antibacterial activity against Bacillus subtilis after 24 hr by two-fold serial dilution method. In kind it is functional.
A further test deals with Staphylococcus aureus. The experiment in a line: Antibacterial activity against Staphylococcus aureus after 24 hr by two-fold serial dilution method. In kind it is functional.
Test [7] deals with Aspergillus flavus. The experiment in a line: Antifungal activity against Aspergillus flavus assessed as growth inhibition at 200 ug/mL after 72 to 96 hr by two-fold serial dilution method. In kind it is functional, organism-based.
The test system of test [8] is Aspergillus niger. As to the kind of experiment: Antifungal activity against Aspergillus niger assessed as growth inhibition at 200 ug/mL after 72 to 96 hr by two-fold serial dilution method. In kind it is functional, organism-based.
In test [9] the test system is Rhizopus. As to the kind of experiment: Antifungal activity against Rhizopus sp. assessed as growth inhibition at 200 ug/mL after 72 to 96 hr by two-fold serial dilution method. In kind it is functional, organism-based.
Test [10] concerns Cryptococcus neoformans. As to the kind of experiment: Antifungal activity against Cryptococcus neoformans assessed as growth inhibition at 200 ug/mL after 72 to 96 hr by two-fold serial dilution method. It is filed as functional, organism-based.
Test [11] concerns Escherichia coli. The experiment in a line: Antibacterial activity against Escherichia coli assessed as growth inhibition at 200 ug/mL after 24 hr by two-fold serial dilution method. In kind it is functional, organism-based.
The test system of test [12] is Bacillus subtilis. As to the kind of experiment: Antibacterial activity against Bacillus subtilis assessed as growth inhibition at 200 ug/mL after 24 hr by two-fold serial dilution method. It is filed as functional, organism-based.

In brackets after ≈: the same amount, converted by molar mass. Activity calls are given as the source filed them. No cut-off for these calls is given here.

In general, MIC refers to the lowest concentration that inhibits growth of the organism. Regarding `Cc1ccc(C2C(C)C(=O)C(C)C(c3ccc(C)cc3)N2C(=O)CCl)cc1` (configuration not stated), the MIC worked out at 50 µg/mL (≈ 130 µM) against Aspergillus flavus [1]; 100 µg/mL (≈ 260 µM) against Aspergillus niger [2]; 25 µg/mL (≈ 65.1 µM) in the test with Rhizopus [3]; 50 µg/mL (≈ 130 µM) in the test with Candida albicans; 50 µg/mL (≈ 130 µM) in the test on Cryptococcus neoformans [4]; 100 µg/mL (≈ 260 µM) with Salmonella typhi. For the same compound, the MIC is 200 µg/mL (≈ 521 µM) in the test on Pseudomonas aeruginosa, 50 µg/mL (≈ 130 µM) in the test with Escherichia coli [5], 100 µg/mL (≈ 260 µM) in the test on Bacillus subtilis [6] and 200 µg/mL (≈ 521 µM) in the test on Staphylococcus aureus.

For `CC1C(=O)CC(c2ccc(Cl)cc2)N(C(=O)CCl)C1c1ccc(Cl)cc1` (configuration not stated), the MIC in the test on Aspergillus flavus [1] was found to be 25 µg/mL (≈ 60.9 µM); in the test on Aspergillus niger [2] it was 50 µg/mL (≈ 122 µM); with Rhizopus [3], 25 µg/mL (≈ 60.9 µM); with Candida albicans, 100 µg/mL (≈ 243 µM); in the test with Cryptococcus neoformans [4] it was 100 µg/mL (≈ 243 µM); in the test on Salmonella typhi, 100 µg/mL (≈ 243 µM). In addition, the MIC in the test with Pseudomonas aeruginosa stood at 12.5 µg/mL (≈ 30.4 µM); against Escherichia coli [5], 25 µg/mL (≈ 60.9 µM); in the test with Bacillus subtilis [6], 100 µg/mL (≈ 243 µM); in the test with Staphylococcus aureus, 50 µg/mL (≈ 122 µM).

`CC(C)C1C(=O)CC(c2ccccc2)N(C(=O)CCl)C1c1ccccc1` (configuration not stated): the “growth inhibition (GI)” value in the test with Aspergillus flavus [7] is “inactive”. In addition, the MIC was 100 µg/mL (≈ 270 µM) against Aspergillus niger [2]; 100 µg/mL (≈ 270 µM) against Rhizopus [3]; 50 µg/mL (≈ 135 µM) against Candida albicans; 200 µg/mL (≈ 541 µM) with Cryptococcus neoformans [4]; 100 µg/mL (≈ 270 µM) with Salmonella typhi; 200 µg/mL (≈ 541 µM) in the test with Pseudomonas aeruginosa. Besides, the results for the MIC against Escherichia coli [5], in the test with Bacillus subtilis [6] and with Staphylococcus aureus were 200 µg/mL (≈ 541 µM), 200 µg/mL (≈ 541 µM) and 100 µg/mL (≈ 270 µM), respectively.

On to `COc1ccc(C2CC(=O)C(C)C(c3ccc(OC)cc3)N2C(=O)CCl)cc1` (configuration not stated), for which the MIC was determined as 50 µg/mL (≈ 124 µM) with Aspergillus flavus [1]; 50 µg/mL (≈ 124 µM) with Aspergillus niger [2]; 25 µg/mL (≈ 62.2 µM) in the test with Rhizopus [3]; 100 µg/mL (≈ 249 µM) against Candida albicans; 100 µg/mL (≈ 249 µM) against Cryptococcus neoformans [4]; 100 µg/mL (≈ 249 µM) against Salmonella typhi. Also, the minimum inhibitory concentration (MIC) with Pseudomonas aeruginosa is 50 µg/mL (≈ 124 µM); with Escherichia coli [5], 100 µg/mL (≈ 249 µM); with Bacillus subtilis [6] it was 200 µg/mL (≈ 498 µM); with Staphylococcus aureus, 25 µg/mL (≈ 62.2 µM).

Take `CN[C@@H]1[C@H](O[C@H]2[C@H](O[C@H]3[C@H](O)[C@@H](O)[C@H](N=C(N)N)[C@@H](O)[C@@H]3N=C(N)N)O[C@@H](C)[C@]2(O)C=O)O[C@@H](CO)[C@H](O)[C@H]1O` [STREPTOMYCIN]: the MIC was 25 µg/mL (≈ 43 µM) in the test with Salmonella typhi; 50 µg/mL (≈ 86 µM) in the test with Pseudomonas aeruginosa; 50 µg/mL (≈ 86 µM) in the test with Escherichia coli [5]; 12.5 µg/mL (≈ 21.5 µM) against Bacillus subtilis [6]; 25 µg/mL (≈ 43 µM) against Staphylococcus aureus.

Consider `Cc1ccc(C2CC(=O)C(C)C(c3ccc(C)cc3)N2C(=O)CCl)cc1` (configuration not stated), for which the MIC with Aspergillus flavus [1] stood at 12.5 µg/mL (≈ 33.8 µM); in the test on Aspergillus niger [2], 12.5 µg/mL (≈ 33.8 µM); against Rhizopus [3] it was 50 µg/mL (≈ 135 µM); in the test with Candida albicans it was 50 µg/mL (≈ 135 µM); in the test with Cryptococcus neoformans [4], 25 µg/mL (≈ 67.6 µM); against Salmonella typhi, 50 µg/mL (≈ 135 µM). Moreover, the minimum inhibitory concentration (MIC) in the test on Pseudomonas aeruginosa is 100 µg/mL (≈ 270 µM); against Escherichia coli [5] it was 25 µg/mL (≈ 67.6 µM); against Bacillus subtilis [6], 12.5 µg/mL (≈ 33.8 µM); against Staphylococcus aureus, 100 µg/mL (≈ 270 µM).

`CCC1C(=O)CC(c2ccc(Cl)cc2)N(C(=O)CCl)C1c1ccc(Cl)cc1` (configuration not stated): the MIC in the test on Aspergillus flavus [1] worked out at 25 µg/mL (≈ 58.9 µM); against Aspergillus niger [2], 12.5 µg/mL (≈ 29.4 µM); in the test with Rhizopus [3], 50 µg/mL (≈ 118 µM); against Candida albicans, 100 µg/mL (≈ 235 µM); in the test with Cryptococcus neoformans [4], 50 µg/mL (≈ 118 µM); against Salmonella typhi it was 12.5 µg/mL (≈ 29.4 µM). Besides, the MIC in the test with Pseudomonas aeruginosa was 50 µg/mL (≈ 118 µM); in the test with Escherichia coli [5], 50 µg/mL (≈ 118 µM); in the test with Bacillus subtilis [6], 25 µg/mL (≈ 58.9 µM); with Staphylococcus aureus it was 25 µg/mL (≈ 58.9 µM).

For `O=C1CC(c2ccccc2)N(C(=O)CCl)C(c2ccccc2)C1` (configuration not stated), the MIC in the test on Aspergillus flavus [1] was 100 µg/mL (≈ 305 µM); in the test with Candida albicans, 200 µg/mL (≈ 610 µM); with Salmonella typhi, 50 µg/mL (≈ 153 µM); with Pseudomonas aeruginosa, 100 µg/mL (≈ 305 µM); against Staphylococcus aureus, 200 µg/mL (≈ 610 µM). Also, the “growth inhibition (GI)” value with Aspergillus niger [8], with Rhizopus [9], in the test with Cryptococcus neoformans [10], in the test with Escherichia coli [11] and with Bacillus subtilis [12] was “inactive” throughout.

For the compound `COc1ccc(C2C(C)C(=O)C(C)C(c3ccc(OC)cc3)N2C(=O)CCl)cc1` (configuration not stated), the MIC was 50 µg/mL (≈ 120 µM) in the test with Aspergillus flavus [1]; 25 µg/mL (≈ 60.1 µM) in the test with Aspergillus niger [2]; 100 µg/mL (≈ 240 µM) in the test with Rhizopus [3]; 100 µg/mL (≈ 240 µM) in the test on Candida albicans; 100 µg/mL (≈ 240 µM) against Cryptococcus neoformans [4]; 25 µg/mL (≈ 60.1 µM) in the test on Salmonella typhi. In addition, the MIC with Pseudomonas aeruginosa came to 100 µg/mL (≈ 240 µM); in the test on Escherichia coli [5] it was 100 µg/mL (≈ 240 µM); with Bacillus subtilis [6], 50 µg/mL (≈ 120 µM); in the test on Staphylococcus aureus it was 50 µg/mL (≈ 120 µM).

`C[C@@H]1[C@H](O)[C@@H](C)/C=C/C=C/C=C/C=C/C=C/C=C/C=C/[C@H](O[C@@H]2O[C@H](C)[C@@H](O)[C@H](N)[C@@H]2O)C[C@@H]2O[C@](O)(C[C@@H](O)C[C@@H](O)[C@H](O)CC[C@@H](O)C[C@@H](O)CC(=O)O[C@H]1C)C[C@H](O)[C@H]2C(=O)O` [AMPHOTERICIN B]: the MIC against Aspergillus flavus [1] stood at 50 µg/mL (≈ 54.1 µM); in the test on Aspergillus niger [2], 50 µg/mL (≈ 54.1 µM); against Rhizopus [3] it was 25 µg/mL (≈ 27.1 µM); in the test on Candida albicans, 25 µg/mL (≈ 27.1 µM); against Cryptococcus neoformans [4], 25 µg/mL (≈ 27.1 µM).

On to `O=C(O)c1cn(C2CC2)c2cc(N3CCNCC3)c(F)cc2c1=O` [CIPROFLOXACIN], for which the values for the MIC in the test with Salmonella typhi and in the test on Escherichia coli [5] were 50 µg/mL (≈ 151 µM) and 25 µg/mL (≈ 75.4 µM), respectively.

For the compound `CC1C(=O)C(C)C(c2ccc(Cl)cc2)N(C(=O)CCl)C1c1ccc(Cl)cc1` (configuration not stated), the MIC in the test with Aspergillus flavus [1] amounted to 100 µg/mL (≈ 235 µM); with Aspergillus niger [2], 50 µg/mL (≈ 118 µM); against Rhizopus [3], 100 µg/mL (≈ 235 µM); with Candida albicans it was 200 µg/mL (≈ 471 µM); against Cryptococcus neoformans [4], 50 µg/mL (≈ 118 µM); against Salmonella typhi it was 25 µg/mL (≈ 58.9 µM). Further, the MIC with Pseudomonas aeruginosa came to 100 µg/mL (≈ 235 µM); against Escherichia coli [5], 50 µg/mL (≈ 118 µM); against Bacillus subtilis [6] it was 100 µg/mL (≈ 235 µM); against Staphylococcus aureus, 12.5 µg/mL (≈ 29.4 µM).

Take `CC1C(=O)CC(c2ccccc2)N(C(=O)CCl)C1c1ccccc1` (configuration not stated): the MIC against Aspergillus flavus [1] stood at 200 µg/mL (≈ 585 µM); with Aspergillus niger [2], 200 µg/mL (≈ 585 µM); with Rhizopus [3], 100 µg/mL (≈ 293 µM); in the test on Candida albicans, 200 µg/mL (≈ 585 µM); against Cryptococcus neoformans [4] it was 100 µg/mL (≈ 293 µM); with Salmonella typhi it was 50 µg/mL (≈ 146 µM). Also, the MIC is 200 µg/mL (≈ 585 µM) against Pseudomonas aeruginosa, 100 µg/mL (≈ 293 µM) with Escherichia coli [5], 100 µg/mL (≈ 293 µM) with Bacillus subtilis [6] and 100 µg/mL (≈ 293 µM) in the test on Staphylococcus aureus.

(Values after ChEMBL document CHEMBL3046827, “Synthesis and antimicrobial activities of N-chloroacetyl-2,6-diarylpiperidin-4-ones” (2007).)
